# How the values were obtained:
# [1] = Inhibition 2[3H]mannose incorporation into glycoconjugates in lymphoblasts isolated from congenital disorders of glycosylation-Ia patient at 300 uM; assay type: functional; settings: Homo sapiens, Lymphoblast
# [2] = Cytotoxicity in human lymphoblasts assessed as release of cellular lactate dehydrogenase at 300 uM after 16 hrs relative to methanol; assay type: cell-based; settings: lymphoblast
Compound,inhibition at 300 µM [1] [%],Activity [2]
"CC(C)C(=O)OC[C@H]1O[C@H](OP(=O)(Oc2ccccc2)O[C@H]2O[C@H](COC(=O)C(C)C)[C@@H](OC(=O)C(C)C)[C@H](OC(=O)C(C)C)[C@@H]2OC(=O)C(C)C)[C@@H](OC(=O)C(C)C)[C@@H](OC(=O)C(C)C)[C@@H]1OC(=O)C(C)C (single isomer, unassigned)",78,–
"CC(=O)OC[C@H]1O[C@H](OP(=O)(Oc2cccc3ccccc23)O[C@H]2O[C@H](COC(C)=O)[C@@H](OC(C)=O)[C@H](OC(C)=O)[C@@H]2OC(C)=O)[C@@H](OC(C)=O)[C@@H](OC(C)=O)[C@@H]1OC(C)=O (single isomer, unassigned)",56,<= 25%
"CC(=O)OC[C@H]1O[C@H](OP(=O)(Oc2ccccc2)O[C@H]2O[C@H](COC(C)=O)[C@@H](OC(C)=O)[C@H](OC(C)=O)[C@@H]2OC(C)=O)[C@@H](OC(C)=O)[C@@H](OC(C)=O)[C@@H]1OC(C)=O (single isomer, unassigned)",26,–
"CCCC(=O)OC[C@H]1O[C@H](OP(=O)(OCc2ccccc2)O[C@H]2O[C@H](COC(=O)CCC)[C@@H](OC(=O)CCC)[C@H](OC(=O)CCC)[C@@H]2OC(=O)CCC)[C@@H](OC(=O)CCC)[C@@H](OC(=O)CCC)[C@@H]1OC(=O)CCC (single isomer, unassigned)",71,–
